Experimental data taken from publication PMC3651166, “Differential Cytotoxic Activity of a Novel Palladium-Based Compound on Prostate Cell Lines, Primary Prostate Epithelial Cells and Prostate Stem Cells” (PLoS ONE, 2013).
Entries after “also recorded” stand apart in the source; their conditions may differ.

Key:
[1] = tested on: stem cells (SCs), transit-amplifying cells (TAs) and committed basal cells (CBs); assay: ATP viability assay on fractionated primary cells; type: cell-based
Experimental: Epithelial cells from human tumour or BPH materials were cultured for several weeks and the cells treated at very low passages. The cultured basal cell population were trypsinized, resuspended in SCM and then plated on BSA-blocked collagen I-coated plates. […] The cells that attached to substratum were trypsinised, resuspended in MACs buffer and incubated with CD133-microbeads (Cat no. 130-050-801, Miltenyi Biotec Inc., Auburn, CA, USA). MACs MS columns (Cat no. 130-042-201, Miltenyi Biotec Inc., Auburn, CA, USA) were used to select the CD133^+ and CD133^− cells. Finally, the three cell populations were obtained: stem cells (SCs) - α2β1integrin^hi/CD133^+, transit-amplifying cells (TAs) - α2β1integrin^hi/CD133^− and committed basal cells (CBs) - α2β1integrin^lo.
This assay was employed for the bioluminescent determination of the adenosine 5′-triphosphate (ATP) released from fractionated living cells (cancer stem cells, transit amplifying cells and committed basal cells). As ATP is rapidly degraded in dead cells, high intracellular levels provide a selective assay for living cells. The ATP-bioluminescent somatic cell assay kit (FLASC, Sigma-Aldrich, Saint Louis, MO, USA) was used with protocol modifications. Briefly, 50–500 cells per well were seeded in a collagen-coated 96 well plate in triplicate. After treating cells for 72 h, 150 µL of medium was removed from each well. 50 µL of cell extraction reagent was added into each original well. Following 20 min incubation at RT, 50 µL of cell extract was transferred to a white 96-well plate. Finally, 50 µL of ATP assay mix solution was added into the wells and luminescence was read using a plate reader (PolarStar Optima, BMG Labtech, UK). Percent viability was calculated using the formula (% Viability = [(Sample RLU/Control RLU)]x100 where RLU refers to relative light units.

cleaved caspase-3 = assay: Western blotting for apoptosis, primary cultures; type: cell-based, human
Experimental: (§1) Following drug treatment, cell lysates were harvested using Cytobuster Protein Extraction Reagent (71009, EMD Millipore, Darmstadt, Germany) with protease inhibitors (cOmplete, EDTA-free Protease Inhibitor Cocktail Tablets, Roche Applied Science, UK). 20 µg of protein extract were loaded on 12% SDS-PAGE gels and wet-transferred to a PVDF membrane. Antibodies used include: monoclonal anti-β-actin 1∶5000 (A5316, Sigma-Aldrich), anti-LC3B 1∶3000 (Ab51520, abcam), cleaved caspase-3 (Asp175) 1∶1000 (9661S, Cell Signaling Technology) and secondary antibodies were Rabbit anti-mouse-HRP 1∶10000 (P0260, Dako) and anti-rabbit IgG HRP-linked 1∶5000 (Cell Signaling Technology Inc. 7074S). Kaleidoscope protein marker was run on each gel (161-0324, Bio-Rad).

γH2AX nuclear foci = assay: γH2AX immunofluorescence, DNA damage in primary cultures; type: cell-based, human; conditions: 48 h
Experimental: γH2AX staining: Cells were seeded onto 8-well collagen I-coated chamber slides. […] After blocking of non-specific binding with 2% BSA in PBS with 1% goat serum for 1 hour at RT, primary antibody (anti-phospho-histone H2A.X (Ser139), clone JBW301, Millipore, Cat no. 05–636) at 1∶1000 dilution was added in 3% BSA in PBS at 4°C overnight followed by three washes in 0.5% BSA in PBS with 0.175% Tween 20. Following incubation with secondary antibody (Goat anti-mouse Alexa Fluor 568, Invitrogen, Cat no. A-11004) at 1∶1000 dilution for 45 min in 3% BSA in PBS and three more washes in the same washing buffer, the slides were mounted using Vectashield with DAPI (Vector Laboratories, Cat no. H-1200). LC3-B staining: Cells were treated as above then fixed with 4% paraformaldehyde, followed by an incubation in 0.3% Triton X-100. After blocking with 10% normal goat serum, cells were incubated in anti-LC3B 1∶200 (Ab51520, abcam) diluted in 0.1% Triton X-100 in PBS. […]
Since the mechanism of action of the Pd complex has not been fully characterized, the DNA-damaging effect was assessed. […] Nuclei with evidence of γH2AX nuclear foci, indicative of DNA damage, were counted on 10 randomly chosen fields at the highest (63x) magnification and the mean number of positively-stained nuclei was calculated. At least 100 cells per well were counted.

[2] = tested on: primary prostate epithelial cells; assay: Flow cytometry cell cycle analysis, primary cells; type: cell-based, human; conditions: primary cells
Experimental: Following drug treatment, floating cells in the media were pooled with adherent cells, which were collected by trypsinisation. Following centrifugation cells were resuspended in 0.5 ml PBS. Cells were fixed in 2 ml ice cold 70% ethanol, which was added in a dropwise fashion while vortexing. Cells were incubated on ice for 30 min then washed in 5 ml PBS and resuspended in 0.4 ml PBS. Following storage at 4°C overnight, 50 µl of RNAse (1 mg/ml) and 50 µl of propidium iodide (1 mg/ml) were added to the cells. Following incubation at 37°C for 30 min the cells were analysed for 2N and 4N DNA content on a flow cytometer (Cyan ADP Analyser, Beckman Coulter).

LC3-II = assay: Western blotting for autophagy, cell lines; type: cell-based, human
Experimental: as §1

## [PdCl(terpy)](sac)⋅2 H2O [Pd complex]
[1]; 6 µM range, ATP assay
  toxicity compared to cisplatin: comparable toxicity to cisplatin
[1]; 6.25 µM, 72 h, ATP assay, SC, TA, CB
  anti-growth effect compared to 25 µM Pd complex and 25 µM etoposide: less than 25 µM Pd complex but still more cytotoxic than 25 µM etoposide
[1]; 25 µM, 72 h, ATP assay, stem cells (also TA, CB)
  cytotoxicity compared to 25 µM etoposide: significantly more cytotoxic; also recorded: much more potent cytotoxic activity than etoposide
[1]; 50 µM, data not shown
  cell killing: killed all cells
Cleaved caspase-3; BPH primary sample
  cleaved caspase-3 (apoptosis): only a positive result with the BPH sample at a low dose
Cleaved caspase-3; primary cancer samples
  cleaved caspase-3 (apoptosis): no evidence of cleaved caspase-3; also recorded: No apoptosis was induced
γH2AX nuclear foci; 3.12 µM
  level of DNA damage (γH2AX nuclear foci): did not induce a significant level of DNA damage
γH2AX nuclear foci; etoposide and Pd complex at the same dose, primary cultures from prostate carcinoma
  level of DNA damage (γH2AX nuclear foci): same level of DNA damage
[2]
  cells with more than 4N DNA content: increase in cells with more than 4N DNA content
  sub-G1 content: clear dose response showing increase in sub-G1 content
LC3-II; BPH-1, PNT2-C2 and P4E6 cells
  LC3-II expression (autophagy): clear increase in the expression of LC3-II
LC3-II; LNCaP and PC3 cells, any treatment
  levels of LC3-I and LC3-II: did not change dramatically or in a dose-dependent fashion
